Literature values in patent US11807855B2, “Selection vectors and methods of selecting eukaryotic host cells” (Novartis AG, priority 2013, dated 2023).
Each block holds one compound with its values, some of them ahead of it.

Experiments:
[1] = target: wild type folate receptor alpha (Homo sapiens, UniProt P15328)
[2] = target: A49L mutated folate receptor alpha (Homo sapiens, UniProt P15328, A74L); details: A49L mutant
RFC = target: T1, RFC (Homo sapiens, UniProt P41440)
T1 sequence (P41440 1-591): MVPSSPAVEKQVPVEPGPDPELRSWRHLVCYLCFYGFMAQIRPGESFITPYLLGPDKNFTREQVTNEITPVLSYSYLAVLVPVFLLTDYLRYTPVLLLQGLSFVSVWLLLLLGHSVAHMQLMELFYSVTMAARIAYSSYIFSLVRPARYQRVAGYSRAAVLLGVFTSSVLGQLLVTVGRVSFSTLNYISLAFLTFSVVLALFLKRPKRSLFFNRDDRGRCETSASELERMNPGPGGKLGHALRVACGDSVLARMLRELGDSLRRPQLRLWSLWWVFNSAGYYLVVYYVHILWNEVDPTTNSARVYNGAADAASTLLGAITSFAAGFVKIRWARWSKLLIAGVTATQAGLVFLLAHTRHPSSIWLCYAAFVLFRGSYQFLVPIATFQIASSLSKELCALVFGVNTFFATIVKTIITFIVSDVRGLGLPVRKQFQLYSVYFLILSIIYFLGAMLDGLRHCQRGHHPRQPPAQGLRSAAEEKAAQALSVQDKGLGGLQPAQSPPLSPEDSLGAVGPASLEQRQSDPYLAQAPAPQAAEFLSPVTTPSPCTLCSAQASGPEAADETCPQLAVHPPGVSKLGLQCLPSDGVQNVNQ

Chain of wild type folate receptor alpha (P15328 25-234): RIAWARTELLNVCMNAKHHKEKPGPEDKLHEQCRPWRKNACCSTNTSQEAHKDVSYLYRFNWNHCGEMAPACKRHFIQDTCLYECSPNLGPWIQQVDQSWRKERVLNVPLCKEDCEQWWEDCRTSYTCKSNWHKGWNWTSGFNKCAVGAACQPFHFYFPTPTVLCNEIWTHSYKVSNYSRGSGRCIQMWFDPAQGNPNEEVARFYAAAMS
Chain of A49L mutated folate receptor alpha (P15328 25-234 A74L): as the sequence (P15328 25-234) above, with A50L counted along it

SMILES: CN1c2c(nc(N)[nH]c2=O)NCC1CNc1ccc(C(=O)N[C@@H](CCC(=O)O)C(=O)O)cc1 (single isomer, unassigned) [6S diastereoisomer of 5-methyltetrahydrofolate, 5-methyltetrahydrofolate]
IC50 [1]: 2.9 nM
IC50 [2]: 179 nM

SMILES: Nc1nc2c(c(=O)[nH]1)CC(CCc1ccc(C(=O)N[C@@H](CCC(=O)O)C(=O)O)cc1)CN2 (stereo partly shown) [5,10-dideazatetrahydrofolic acid]
Ki (FR alpha and FR beta; using [3H]folic acid as a substrate): 0.4 to 1.3 nM

Kd (FR alpha and FR beta): 1 nM
SMILES: C#CCN(c1ccc(C(=O)N[C@@H](CCC(=O)N[C@H](CCC(=O)O)C(=O)O)C(=O)O)cc1)[C@H]1CCc2cc3nc(CO)[nH]c(=O)c3cc21 [BGC945]

Kd (FR alpha and FR beta): > 100 nM
SMILES: CN(Cc1cnc2nc(N)nc(N)c2n1)c1ccc(C(=O)N[C@@H](CCC(=O)O)C(=O)O)cc1 [MTX, methotrexate]

Km (RFC): 200 to 400 µM
Kd (FR alpha and FR beta): 0.1 to 1 nM
SMILES: Nc1nc2ncc(CNc3ccc(C(=O)N[C@@H](CCC(=O)O)C(=O)O)cc3)nc2c(=O)[nH]1 [folic acid]
